{"source": "paper PMC12030314", "about": "“Biomarker-Driven Pharmacokinetics and Efficacy of Polymyxin B in Critically Ill Patients with XDR-GN Pneumonia” (Pharmaceuticals, 2025)", "assay": "Plasma pharmacokinetics of intravenous PMB in critically ill patients (UPLC-MS/MS; noncompartmental and two-compartment analysis)", "format": "in vivo, human", "details": "for Cmax: read-out: Css,max; for AUC(0-t): read-out: AUCss,0–24h", "description": "The patients received a 100 mg loading dose followed by a maintenance dose of 50 mg every 12 h. PMB was administered by short-term infusions (60 min). Blood samples were collected from each patient in three stages.\nPhase of first dose: Blood samples were collected at defined time points to capture PK data.\nPhase of steady state: Although a steady state of PMB concentration can be achieved after 48 h of treatment, considering the special condition of critically ill patients, blood samples were collected immediately before the initiation of the seventh dose (trough) and immediately at the end of the seventh dose (peak).\nDuring the last dose phase, blood samples were collected immediately before the initiation of the last dose, immediately at the end of the last dose, and randomly (at least eight blood samples for each person) at 1.5, 2, 2.5, 3, 5, 7, 9, 12, 15, 19, 24, 48, and 72 h after completing the infusion.\nBlood and BAL samples were centrifuged for 10 min (3000 rpm) and immediately stored at −80 °C until analysis.\nPMB concentrations in the samples were quantified by monitoring the total concentrations of polymyxin B1 (PB1), polymyxin B2 (PB2), polymyxin B3 (PB3), and isoleucine polymyxin B1 (I-PB1) via a validated ultraperformance liquid chromatography–tandem mass spectrometry (UPLC-MS/MS) assay. The standard substances, including PB1 (CAS P037), PB2 (CAS P037), PB3 (CAS P040), and I-PB1 (CAS P038), were purchased by TOKU-E Company (>99% pure, Bellingham, WA, USA). ACQUITY UPLC system, Quattro PremierXE triple quadrupole mass spectrometer, electrospray isonizaiton source (ESI), and Masslynx 4.1 data processing software were used in this study (Waters Company, Milford, MA, USA). An Acquity UPLC BEH C18 column (50 mm × 2.1 mm internal diameter, 1.8 μm) purchased from Waters (Milford, MA, USA) was used. The mobile phase comprised a 0.2% formic acid aqueous solution and a 0.2% formic acid acetonitrile solution, and the flow rate was 0.3 mL/min. Mass spectrometric detection was performed in positive electrospray ionization (ESI+) mode with multiple reaction monitoring (MRM). The optimized transitions were set as follows: m/z 602.7→101.0 for PB1 and I-PB1, m/z 595.7→100.9 for PB2 and PB3, and […] for the internal standard norvancomycin. Plasma and BAL supernatant was aliquoted into microcentrifuge tubes and sequentially treated with 20 μL norvancomycin or 200 μL 5% trichloroacetic acid. 1 μL plasma and 2 μL BAL of supernatant were collected separately for the detection of PMB concentrations.\nAnalysis of independently prepared quality control samples indicated good reproducibility (coefficients of variation ≤ 8.39%) and accuracy (measured concentrations ≤ 10.0% from target concentrations). The standard curve was linear over the range of 0.5 to 10,000 ng/mL, with precision and accuracy of less than 15%. The regression coefficient was 0.9985. The relative standard deviation values for the intra- and inter-day precision at low, middle, and high levels were all less than 6%, and the recovery rate was 83.1–85.4%.\nThe plasma concentration–time values for PMB were analysed via Phoenix WinNonlin 8.1. The data were explored via noncompartmental and two-compartment PK models. The principles for final model selection were a low Akaike information criterion (AIC), visual evaluation of individual plasma concentration–time profiles, and precision of parameter estimations on the basis of one sample t-test or the correlation coefficient. The following PK parameters were generated via noncompartmental and two-compartment analysis: Cmax, CL, Vd, t1/2, k, and AUC was determined via the linear trapezoidal rule. The PMB Css,avg was calculated from the Cmax and Cmin that were directly obtained from the observed peak and trough concentrations in the stable state. The simulated concentrations were obtained via compartment PK models. Factors that affect PMB PK parameters were also evaluated.", "key": {"[1]": {"details": "27 critically ill patients, iv 100 mg loading, 50 mg q12h, noncompartmental analysis after last dose, mean"}, "[2]": {"details": "Treatment Failure (n = 5), median [IQR]"}, "[3]": {"details": "human, plasma, iv, 50 mg, Treatment Success (n = 22), median [IQR]"}, "[4]": {"details": "human, plasma, iv, 50 mg, Table 2, 27 enrolled patients, mean"}}, "note": "Read-outs that look alike come from different tables or passages of the source. Where a SMILES comes first, the peptide text is derived from it. Bridges are numbered along the chain shown (N, C = ends). [ ]: non-standard residue; d: D form. The star is where a group is joined. X1 = CC[C@H](C)CCCCC(=O)*; Dab = NCC[C@H](N)C(=O)O", "data": [{"smiles": "CC[C@H](C)CCCCC(=O)N[C@@H](CCN)C(=O)N[C@H](C(=O)N[C@@H](CCN)C(=O)N[C@H]1CCNC(=O)[C@H]([C@@H](C)O)NC(=O)[C@H](CCN)NC(=O)[C@H](CCN)NC(=O)[C@H](CC(C)C)NC(=O)[C@@H](Cc2ccccc2)NC(=O)[C@H](CCN)NC1=O)[C@@H](C)O", "note": "[PMB, polymyxin B] (X1-[Dab]T[Dab][Dab][Dab][dF]L[Dab][Dab]T; lactam 4-C)", "values": [{"measurement": "half-life (t1/2)", "setting": "[1]", "result": 19.56, "unit": "h"}, {"measurement": "volume of distribution (Vd)", "setting": "[1]", "result": 30.44, "unit": "L"}, {"measurement": "Css,avg", "setting": "Table 2, 27 enrolled patients, mean", "result": 5.1, "unit": "µg/mL"}, {"measurement": "Css,avg", "setting": "Total (n = 27), median [IQR]", "result": "5.2 [3.8, 5.9]"}, {"measurement": "Css,max", "setting": "Total (n = 27), median [IQR]", "result": "8.7 [6.6, 10.1]"}, {"measurement": "Css,avg", "setting": "[2]", "result": "6.6 [5.9, 7.7]"}, {"measurement": "Css,max", "setting": "[2]", "result": "11.1 [9.9, 11.4]"}, {"measurement": "Css,avg", "setting": "Treatment Success (n = 22), median [IQR]", "result": "5.0 [3.7, 5.5]"}, {"measurement": "Cmax", "setting": "human, plasma, iv, 50 mg, Table 2, 27 enrolled patients, iv 100 mg loading, 50 mg q12h, mean", "result": 8300, "unit": "ng/mL"}, {"measurement": "AUC(0-t)", "setting": "human, plasma, iv, 50 mg, Total (n = 27), median [IQR]", "result": 101, "unit": "µg·h/mL"}, {"measurement": "AUC(0-t)", "setting": "human, plasma, iv, 50 mg, Treatment Failure (n = 5), median [IQR]", "result": 64.7, "unit": "µg·h/mL"}, {"measurement": "AUC(0-t)", "setting": "[3]", "result": 112, "unit": "µg·h/mL"}, {"measurement": "Cmax", "setting": "[3]", "result": 8700, "unit": "ng/mL"}, {"measurement": "Vd", "setting": "[4]", "result": 30.4, "unit": "L"}, {"measurement": "clearance", "setting": "[4]", "result": 26.7, "unit": "mL/min"}, {"measurement": "half-life", "setting": "[4]", "result": 19.6, "unit": "h"}, {"measurement": "AUC(0-t)", "setting": "[4]", "result": 110, "unit": "µg·h/mL"}]}]}
